Measurements from patent US5861424A, “Composition and method for treating cancer” (priority 1995, dated 1999).
Like-named read-outs stand apart in the source and are kept apart here.

What was measured:
[1] = system: human colon carcinoma CX-1; test: Anti-human colon carcinoma CX-1 activity in nude mice, tumor inhibition; type: in vivo, human colon carcinoma in Swiss nu/nu mice; conditions: Mus musculus, ip, 24 h
From the text: Human colon carcinoma cell line CX-1 has been chosen by the National Cancer Institute as a mode for cancer drug screening (NCI Protocol 3C2H2). It was established in culture from the surgical explant of the primary colon adenocarcinoma of a person with no previous chemotherapy. The cultured CX-1 cells, upon subcutaneous injection, can grow readily in nude mice as a moderately- to well-differentiated human colon carcinoma. CEA is expressed as expected for differentiated colon carcinoma cells. Abundant keratin, consistent with epithelial origin, is present. Increased uptake and prolonged retention of delocalized lipophilic cations are observed.
Swiss nu/nu mice obtained from Taconic Farm were housed in a pathogen-free environment. Tumors subcutaneously passaged in nude mice were excised under sterile conditions and converted to a single cell suspension using a metal grid with a 0.4 mm mesh. Red blood cells were lysed by incubation with 0.17M ammonium chloride at 4° C. for 20 minutes. Cells were scored for viability with trypan blue. Viable CX-1 cells (2.5 million) made up in 0.1 ml of cell culture medium were injected subcutaneously into each nude mouse. The mice were randomly allocated into a control group (five mice) and a treatment group (five mice per group). The drug treatment was commenced the next day. Doses and schedules were developed empirically and were based mainly on information on LD50 and LD10 obtained from preliminary toxicity studies. The control group received an equivalent volume of hydroxylpropyl-β-cyclodextrin-5% glucose solution.
The pharmaceutical compositions tested comprised solutions in 5% glucose subjected to sonication at concentrations of 1 mg/ml. Those compounds which were not completely dissolved by this procedure were dissolved in hydroxypropyl-β-cyclodextrin using the following method. Hydroxypropyl-β-cyclodextrin (45 g) was mixed with 100 ml of sterilized, double distilled water and stirred for four hours. Each of the compounds to be tested (20 mg) was mixed with 10 ml of hydroxypropyl-β-cyclodextrin solution and sonicated for 60 minutes in the dark. This solution was then diluted in 5% glucose to yield a final compound concentration of 0.5 mg/ml, and further sonicated for 60 minutes in the dark to assure that the compound was completely dissolved.
When the growth of tumors in the control group reached the exponential phase and the size of the tumor was palpable (usually 20 to 30 days after tumor implantation), the experiments were terminated. Tumors in each mouse were excised and weighed using an analytical balance. Total tumor weight in each group from five mice was calculated. Per cent tumor inhibition between the treated group and the control group was then calculated for each group.

human melanoma LOX = test: Survival of nude mice implanted with human melanoma LOX; type: in vivo, human melanoma in male athymic Swiss nu/nu mouse; conditions: Mus musculus, ip, 24 h, read-out: T/C (survival)
Experimental: LOX, a human melanoma cell line, grown subcutaneously in nude mice was excised, trypsinized to yield a single cell suspension using a metal grid with a […]. Red blood cells were lysed by incubation with 0.17 molar ammonium chloride at 4° C. for 20 minutes. Five million viable trypan blue negative cells made up in 0.1 ml of Dulbecco modified Eagles' medium (DME) were injected into the peritoneal cavity of a male athymic Swiss nu/nu mouse. The control group and each treatment group consisted of 5 to 10 mice. Treatment was commenced the following day by intraperitoneal injection.
Ten control mice received 0.25 ml of 2% dextrose on those days the treated groups were injected with the compounds of this invention. The compounds of the General Formulas. (1) to (6) used in this invention which were tested are listed in Table VIII below and the results obtained are shown in Table VIII and FIG. 1-6 of the accompanying drawings. T/C is the ratio, expressed as a percentage of the mean survival age of the treated group to the mean survival age of the untreated control group.

[2] = system: normal monkey kidney epithelial cell line CV-1; test: Colony formation assay, normal monkey kidney epithelial cells CV-1; conditions: Primates, Epithelial cell;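 further: colonies visualized by crystal violet staining, incubation at 37 °C, IC50 relative to untreated wells given culture medium alone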
[3] = system: human colon carcinoma cell line CX-1; test: Colony formation assay, human colon carcinoma CX-1; type: cell-based; conditions: Table III; for IC50: Homo sapiens, Colon carcinoma cell, read-out: CX-1 (IC50); for IC50 / CX-1 (IC50): 24 h treatment, colony count after 7 to 10 days; for Selectivity (ratio of IC50 for CV-1 and IC50 for CX-1): CV-1/CX-1
Experimental: Human colon carcinoma cell line CX-1 or normal monkey kidney epithelial cell line CV-1 was chosen as representatives of cancer cells and normal cells, respectively. […] CX-1 cells (2,000 cells/well) and CV-1 cells (1,000 cells/well) were plated in 24-well plastic culture plates. […] The control received culture media only. Cells were treated with compounds of General Formulas (1) to (6) at 37° C. for 24 hours. After rinsing with fresh culture medium three times, the cells were further incubated at 37° C. for 7 to 10 days. Cell colonies were fixed and stained with 2% crystal violet in 70% ethanol for 10 minutes and rinsed in water. […] The selectivity is defined as the ratio of IC50 for CV-1 and IC50 for CX-1.

[4] = system: human pancreatic carcinoma CRL 1420 cell line; test: Colony formation assay, human pancreatic carcinoma CRL 1420; type: cell-based; conditions: Table VII; for IC50: Homo sapiens, 24 h; for IC50 / CRL-1420 (IC50): 24 h treatment; for Selectivity (CV-1 IC50 / CRL-1420 IC50): CV-1/CRL-1420
From the text: (§1) The control received culture media only.
The Selectivity values, CRL 1420 values and CV-1 values for compounds of the General Formulas (1) to (6) used in the present invention are shown in Table VII below.

[5] = system: human melanoma LOX cell line; test: Colony formation assay, human melanoma LOX; type: cell-based; conditions: Table V; for IC50: Homo sapiens, LOX, 24 h, read-out: LOX (IC50); for Selectivity (CV-1 IC50 / LOX IC50): CV-1/LOX
From the text: as §1

[6] = system: human bladder carcinoma EJ cell line; test: Colony formation assay, human bladder carcinoma EJ; type: cell-based; conditions: Table IV; for IC50: Homo sapiens, EJ, 24 h, read-out: EJ (IC50); for Selectivity (CV-1 IC50 / EJ IC50): CV-1/EJ
From the text: as §1

[7] = system: human breast carcinoma MCF-7 cell line; test: Colony formation assay, human breast carcinoma MCF-7; type: cell-based; conditions: Table VI; for IC50: Homo sapiens, MCF7, 24 h, 24 h treatment, read-out: MCF-7 (IC50); for Selectivity (CV-1 IC50 / MCF-7 IC50): CV-1/MCF-7
From the text: as §1
The Selectivity values, MCF-7 values and CV-1 values for compounds of the General Formulas (1) to (6) used in the present invention are shown in Table VI below.

[8] = i.p. on day 1, 7**, 9** (**10 mg/kg)
[9] = i.p. on day 1, 4, 7, 11, 15, 18
[10] = read-out: CV-1 (IC50), Table III, 24 h treatment, colony count after 7 to 10 days
[11] = read-out: CV-1 (IC50), Table IV
[12] = read-out: CV-1 (IC50), Table VI
[13] = read-out: CV-1 (IC50), Table VII

| SMILES | inhibition in vivo at 20 mg/kg [1, 9] [%] | IC50 [2, 10] [µg/mL] | IC50 [2, 11] [µg/mL] | IC50 [2, 13] [µg/mL] | IC50 [3] [µg/mL] | Selectivity (ratio of IC50 for CV-1 and IC50 for CX-1) [3] | Selectivity (CV-1 IC50 / CRL-1420 IC50) [4] | Selectivity (CV-1 IC50 / EJ IC50) [6] | further results |
| --- | --- | --- | --- | --- | --- | --- | --- | --- | --- |
| CCN1CCSC1=CC=c1sc(=Cc2cc[n+](CC)c3ccccc23)n(CC)c1=O [Compound 146] | – | – | – | – | – | – | – | – | inhibition in vivo at 20 mg/kg [1, 8]: 59.3% |
| CC[n+]1c(C=c2sc(=CC=C3Sc4ccc5ccccc5c4N3C)c(=O)n2C)sc2c3ccccc3ccc21 [Compound 47] | 64.1 | 20 | 20 | 20 | 0.05 | 400 | 312 | 244 | response vs control in vivo at 20 mg/kg (human melanoma LOX; i.p. on day 1, 3, 6, 9, 13, 16): 156%; IC50 ([2]; read-out: CV-1 (IC50), Table V): 20 µg/mL; IC50 [2, 12]: 20 µg/mL; IC50 [4]: 0.064 µg/mL; IC50 ([5]; 24 h treatment): 0.082 µg/mL; Selectivity (CV-1 IC50 / LOX IC50) [5]: 244; IC50 ([6]; 24 h treatment): 0.082 µg/mL; IC50 [7]: 0.1 µg/mL; Selectivity (CV-1 IC50 / MCF-7 IC50) [7]: 200 |
| CCn1c(=Cc2sc3c4ccccc4ccc3[n+]2CC)sc(=CC=C2Sc3ccc4ccccc4c3N2C)c1=O [Compound 56] | – | – | 20 | – | – | 200 | > 435 | 222 | inhibition in vivo at 20 mg/kg ([1]; i.p. on day 1, 5, 8, 11): 82.6%; CX-1 (IC50) [3]: 0.1 µg/mL; CRL-1420 (IC50) [4]: < 0.046 µg/mL; IC50 ([6]; 24 h treatment): 0.09 µg/mL |
| CCN1C(=CC=c2sc(=Cc3sc4c5ccccc5ccc4[n+]3CC)n(CC)c2=O)Sc2ccc3ccccc3c21 [Compound 54] | – | – | 20 | 20 | – | 500 | 400 | 500 | inhibition in vivo at 5 mg/kg ([1]; 5 mg/kg, i.p. on day 1, 5, 9, 13): 42.6%; IC50 ([2]; read-out: CV-1 (IC50), Table V): 20 µg/mL; IC50 [2, 12]: 20 µg/mL; CX-1 (IC50) [3]: 0.04 µg/mL; CRL-1420 (IC50) [4]: 0.05 µg/mL; LOX (IC50) ([5]; 24 h treatment): 0.07 µg/mL; Selectivity (CV-1 IC50 / LOX IC50) [5]: 286; EJ (IC50) ([6]; 24 h treatment): 0.04 µg/mL; IC50 [7]: 0.05 µg/mL; Selectivity (CV-1 IC50 / MCF-7 IC50) [7]: 400 |
| C=CCn1c(=Cc2cc[n+](CC)c3ccccc23)sc(=CC=C2C=CN(CC)c3ccccc32)c1=O [Compound 304] | – | – | – | – | – | – | – | – | inhibition in vivo at 20 mg/kg [1, 8]: 65.9% |
| CCn1c(=Cc2sc3c4ccccc4ccc3[n+]2C)sc(=CC=C2Sc3ccc4ccccc4c3N2C)c1=O [Compound 44] | 54.8 | 20 | – | – | 0.02 | 1000 | – | – | – |
| CCn1c(=Cc2sc3c4ccccc4ccc3[n+]2CC)sc(=CC=C2Sc3ccc4ccccc4c3N2C)c1=O [Compound 32] | – | 20 | – | 20 | 0.02 | 1000 | > 200 | – | inhibition in vivo at 20 mg/kg ([1]; i.p. on day 1, 2, 4, 6, 8): 40.5%; response vs control in vivo at 40 mg/kg (human melanoma LOX; 40 mg/kg, i.p. on day 1, 2, 3, 4, 5, 7, 8, 9, 10): 231%; CRL-1420 (IC50) [4]: < 0.1 µg/mL |
| CCN1C(=CC=c2sc(=Cc3sc4c5ccccc5ccc4[n+]3CC)n(C)c2=O)Sc2ccc3ccccc3c21 [Compound 45] | 56.8 | 20 | 20 | 20 | 0.02 | 1000 | 286 | 400 | response vs control in vivo at 20 mg/kg (human melanoma LOX; i.p. on day 1, 2, 3, 6, 9, 13): 137%; IC50 ([2]; read-out: CV-1 (IC50), Table V): 20 µg/mL; IC50 [2, 12]: 20 µg/mL; IC50 [4]: 0.07 µg/mL; IC50 ([5]; 24 h treatment): 0.07 µg/mL; Selectivity (CV-1 IC50 / LOX IC50) [5]: 286; IC50 ([6]; 24 h treatment): 0.05 µg/mL; IC50 [7]: 0.06 µg/mL; Selectivity (CV-1 IC50 / MCF-7 IC50) [7]: 333 |
| C=CCn1c(=Cc2cc[n+](CC)c3ccccc23)sc(=CC=C2C=Cc3ccccc3N2CC)c1=O [Compound 249] | – | 5 | – | 5 | 0.05 | 100 | 111 | – | inhibition in vivo at 20 mg/kg ([1]; i.p. on day 1, 5, 7, 9): 41.1%; IC50 [4]: 0.045 µg/mL |
| CN1C(=CC=c2sc(=Cc3sc4c5ccccc5ccc4[n+]3C)n(C)c2=O)Sc2ccc3ccccc3c21 [Compound 48] | 72.4 | 20 | – | – | 0.005 | 4000 | – | – | – |
| CCn1c(=Cc2sc3c4ccccc4ccc3[n+]2CC)sc(=CC=C2Sc3ccc4ccccc4c3N2C)c1=O [Compound 55] | 55.3 | – | – | – | – | – | – | – | – |
